Laboratory results from a compilation of properties of binary mixtures (doi:10.1039/c7qm00510e).

Test: xn = mol fraction of the nth substance listed
Details: 101 kPa

CCCCCCCCCCOS(=O)(=O)[O-].CC[n+]1ccn(C)c1 + O
electrical conductivity [S/m]
Details | 303.15 K | 313.15 K | 323.15 K | 333.15 K | 343.15 K | 353.15 K | 363.15 K | 372.95 K
x1 = 0.075 | 2.53 | 3.16 | 3.83 | 4.55 | 5.29 | 6.06 | – | –
x1 = 0.317 | – | – | – | – | 1.34 | 1.63 | 1.96 | 2.23
